Read-outs that look alike come from different tables or passages of the source.
What was measured:
[1] = target: HIV-1 protease (Human immunodeficiency virus type 1 group M subtype B, UniProt P04585); conditions: cited from earlier work
[2] = tested on: HIV-1 in treatment naive patients; assay: Clinical study AI424-008/044, virological outcomes and resistance; format: in vivo, human; conditions: study 008/044
Excerpt: (§1) Study Population. Viral samples (baseline and on-treatment, where available) were obtained from patients who experienced virologic failure while enrolled in studies AI424-007/041 [12] (ATV+d4T and ddI), AI424-008/044 [13, 14] (ATV+d4T and 3TC) and AI424-034 [9] (ATV or EFV in combination with ZDV and 3TC). […] In general, virologic failure specimens were selected for further resistance evaluation only if they contained >1,000 copies/mL HIV-1 RNA and there was no indication that the specimen came from a patient at a time of transient non-adherence to study drug(s). […] For non-responders, samples from week 16 (or 24) were tested. Drug adherence was determined from pill counts of returned study medications at each scheduled visit.
(§2) ATV resistance was defined as ≧2-fold decrease in ATV susceptibility from baseline, a Fold Change (FC) of ≧2.5 (relative to the Nl4-3 reference strain), or evidence of an isoleucine (Ile) to leucine (Leu) change at amino acid residue 50 (I50L). Resistance levels for NFV and EFV were also defined as a FC reaching 2.5.

[3] = tested on: clinical isolates exhibiting a wide array of PI resistance profiles; conditions: cited from earlier work
[4] = tested on: HIV-1 in treatment naive patients; assay: Clinical study AI424-007/041, virological outcomes and resistance; format: in vivo, human; conditions: study 007/041
Excerpt: as §1, §2

[5] = tested on: HIV-1 in treatment naive patients on ATV containing regimens; assay: Pooled resistance analysis of studies AI424-007/041, 008/044 and 034; format: in vivo, human; conditions: patients with I50L, N=10
Excerpt: as §1, §2

[6] = tested on: HIV-1 in treatment naive patients; assay: Clinical study AI424-034, virological outcomes and resistance; format: in vivo, human; conditions: study 034
Excerpt: as §1, §2

[7] = tested on: clinical isolates containing a D30N substitution; assay: PhenoSense phenotypic susceptibility of clinical isolates containing D30N; format: cell-based, HIV-1; conditions: 75 D30N containing isolates, FIG. 3
Protocol: (§3) Drug Susceptibility Assays. Clinical isolates were subjected to phenotypic (PhenoSense™) and genotypic (GeneSeq™) analysis by Virologic, Inc. as described elsewhere.
Comparative Studies of I50L and D30N Containing Viruses. […] Comparative studies were performed on the 18 phenotyped viruses containing an I50L and 75 clinical isolates containing a D30N substitution without evidence of cross-resistance (FC≧2.5) to other PIs.

[8] = tested on: clinical isolates containing an I50L substitution (and their baseline isolates); assay: PhenoSense phenotypic susceptibility of clinical isolates from ATV-treated patients who developed I50L; format: cell-based, HIV-1
Excerpt: as §1, §3

## COC(=O)N[C@H](C(=O)N[C@@H](Cc1ccccc1)[C@@H](O)CN(Cc1ccc(-c2ccccn2)cc1)NC(=O)[C@@H](NC(=O)OC)C(C)(C)C)C(C)(C)C [ATV, atazanavir]
[1]
  Ki: < 1 nM
[2]
  Virologic Failures (%): 24%
  Virologic Failures, number: 88
[3]; isolates resistant to 1 PI
  percentage of isolates remaining susceptible to ATV: 88%
[3]; isolates resistant to 2 PIs
  percentage of isolates remaining susceptible to ATV: 81%
[3]; isolates resistant to 3 PIs
  percentage of isolates remaining susceptible to ATV: 34%
[3]; isolates resistant to 4 PIs
  percentage of isolates remaining susceptible to ATV: 16%
[3]; isolates resistant to 5 PIs
  percentage of isolates remaining susceptible to ATV: 5%
[4]
  Virologic Failures (%): 21%
  Virologic Failures, number: 51
[5]
  mean time to virologic failure: 50 weeks
[6]
  Virologic Failures (%): 17%
  Virologic Failures, number: 69
[7]
  median FC: small median decreases in susceptibility
[8]; I50L isolates, relative to NL4-3 reference strain
  median FC: 9.6 fold
[8]; Isolate with I50L 1
  Susceptibility, Fold Change in EC50 relative to reference strain: 3.5 Fold Change
[8]; Isolate with I50L 2
  Susceptibility, Fold Change in EC50 relative to reference strain: 4.9 Fold Change
[8]; Isolate with I50L 3
  Susceptibility, Fold Change in EC50 relative to reference strain: 5.2 Fold Change
[8]; Isolate with I50L 4
  Susceptibility, Fold Change in EC50 relative to reference strain: 5.8 Fold Change
[8]; Isolate with I50L 5
  Susceptibility, Fold Change in EC50 relative to reference strain: 6.7 Fold Change
[8]; Isolate with I50L 6
  Susceptibility, Fold Change in EC50 relative to reference strain: 7.9 Fold Change
[8]; Isolate with I50L 7
  Susceptibility, Fold Change in EC50 relative to reference strain: 8.6 Fold Change
[8]; Isolate with I50L 8
  Susceptibility, Fold Change in EC50 relative to reference strain: 8.8 Fold Change
[8]; Isolate with I50L 9
  Susceptibility, Fold Change in EC50 relative to reference strain: 9.5 Fold Change
[8]; Isolate with I50L 10
  Susceptibility, Fold Change in EC50 relative to reference strain: 10 Fold Change
[8]; Isolate with I50L 11
  Susceptibility, Fold Change in EC50 relative to reference strain: 11 Fold Change
[8]; Isolate with I50L 12
  Susceptibility, Fold Change in EC50 relative to reference strain: 12 Fold Change
[8]; Isolate with I50L 13
  Susceptibility, Fold Change in EC50 relative to reference strain: 13 Fold Change
[8]; Isolate with I50L 14
  Susceptibility, Fold Change in EC50 relative to reference strain: 19 Fold Change
[8]; Isolate with I50L 15
  Susceptibility, Fold Change in EC50 relative to reference strain: 22 Fold Change
[8]; Isolate with I50L 16
  Susceptibility, Fold Change in EC50 relative to reference strain: 29 Fold Change
[8]; Subject 076, Week 80
  Susceptibility, Fold Change in EC50 relative to reference strain: 9.5 Fold Change
[8]; Subject 076, Week 92
  Susceptibility, Fold Change in EC50 relative to reference strain: 16 Fold Change
[8]; Subject 100, Week 1.7
  Susceptibility, Fold Change in EC50 relative to reference strain: 1.5 Fold Change
[8]; Subject 169, Week 0.1
  Susceptibility, Fold Change in EC50 relative to reference strain: 1.1 Fold Change
[8]; Subject 169, Week 90
  Susceptibility, Fold Change in EC50 relative to reference strain: 12 Fold Change
[8]; Subject 169, Week 102
  Susceptibility, Fold Change in EC50 relative to reference strain: 9.2 Fold Change
[8]; Subject 169, Week 114
  Subceptibility, Fold Change in EC50 relative to reference strain: 13 Fold Change
[8]; Subject 362, Week 0.1
  Susceptibility, Fold Change in EC50 relative to reference strain: 1.3 Fold Change
[8]; Subject 362, Week 108
  Susceptibility, Fold Change in EC50 relative to reference strain: 12 Fold Change
[8]; on emergence of I50L, n=15
  median decrease in susceptibility from baseline: 9.6 fold
[8]; same isolate prior to developing the I50L change
  FC: 0.2
[8]; the one I50L isolate with lowest FC, on treatment
  FC: 1.5
[8]; three on treatment isolates containing I50I/L mixtures
  FC: below 1
[8]; viruses containing the I50L substitution, FIG. 3
  median FC: selective resistance

— patent US20050148523A1, “Method of treating HIV infection in atazanavir-resistant patients using a combination of atazanavir and another protease inhibitor” (priority 2003, published 2005)
